Assay in all cases: relative viability (nuclei count vs DMSO), 5 days (fraction); higher = more cells survive
Compound in the assay “EHT 1864 + Linsitinib”: C1COCCN1CC2=CC(=O)C(=CO2)OCCCCCSC3=C4C=CC(=CC4=NC=C3)C(F)(F)F [EHT 1864] + C[C@]1(O)C[C@@H](c2nc(-c3ccc4ccc(-c5ccccc5)nc4c3)c3c(N)nccn32)C1 [Linsitinib] (partner 1 µM)
The gist of the method:
(§1)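 Five library-drug doses in √10 steps were combined with a fixed anchor-drug dose, or a single drug was given alone, by pin tool to lung cancer cell lines in 1536-well plates the day after seeding. Nuclei were stained and counted after 5 days. Relative viability is the nuclei count in treated wells over that in vehicle wells, taken as the median of duplicate plates.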

Compound in the assay “EHT 1864 + OSI-027”: C1COCCN1CC2=CC(=O)C(=CO2)OCCCCCSC3=C4C=CC(=CC4=NC=C3)C(F)(F)F [EHT 1864] + COc1cccc2cc(-c3nc([C@H]4CC[C@H](C(=O)O)CC4)n4ncnc(N)c34)[nH]c12 [OSI-027] (partner 0.5 µM)
The gist of the method:
as §1

Compound in the assay “EHT 1864 + Luminespib”: C1COCCN1CC2=CC(=O)C(=CO2)OCCCCCSC3=C4C=CC(=CC4=NC=C3)C(F)(F)F [EHT 1864] + CCNC(=O)c1noc(-c2cc(C(C)C)c(O)cc2O)c1-c1ccc(CN2CCOCC2)cc1 [Luminespib] (partner 0.01 µM)
In short, it runs like this: as §1

Compound in the assay “EHT 1864 + Lapatinib”: C1COCCN1CC2=CC(=O)C(=CO2)OCCCCCSC3=C4C=CC(=CC4=NC=C3)C(F)(F)F [EHT 1864] + CS(=O)(=O)CCNCc1ccc(-c2ccc3ncnc(Nc4ccc(OCc5cccc(F)c5)c(Cl)c4)c3c2)o1 [Lapatinib] (partner 2 µM)
In short, it runs like this: as §1

For the cell line NCI-H2023, the relative viability in the assay with EHT 1864 + Linsitinib (first compound 0.04 µM) amounted to 0.586; with EHT 1864 + Linsitinib (first compound 0.1265 µM), 0.717; in the assay with EHT 1864 + Linsitinib (first compound 0.4 µM), 0.612; in the assay with EHT 1864 + Linsitinib (first compound 1.265 µM) it was 0.656; with EHT 1864 + Linsitinib (first compound 4 µM), 0.602; with EHT 1864 + OSI-027 (first compound 0.04 µM) it was 0.373. The relative viability with EHT 1864 + OSI-027 (first compound 0.1265 µM) was 0.314; in the assay with EHT 1864 + OSI-027 (first compound 0.4 µM) it was 0.375; with EHT 1864 + OSI-027 (first compound 1.265 µM) it was 0.313; with EHT 1864 + OSI-027 (first compound 4 µM), 0.369; with EHT 1864 + Luminespib (first compound 0.04 µM), 0.585; in the assay with EHT 1864 + Luminespib (first compound 0.1265 µM), 0.723. The relative viability with EHT 1864 + Luminespib (first compound 0.4 µM) is 0.704; with EHT 1864 + Luminespib (first compound 1.265 µM), 0.634; with EHT 1864 + Luminespib (first compound 4 µM) it was 0.68; with EHT 1864 + Lapatinib (first compound 0.04 µM), 0.813; with EHT 1864 + Lapatinib (first compound 0.1265 µM), 0.558; with EHT 1864 + Lapatinib (first compound 0.4 µM) it was 0.727. The relative viability with EHT 1864 + Lapatinib (first compound 1.265 µM) amounted to 0.919; in the assay with EHT 1864 + Lapatinib (first compound 4 µM), 0.84.

For COR-L 105, the relative viability with EHT 1864 + Linsitinib (first compound 0.04 µM) turned out to be 0.889; in the assay with EHT 1864 + Linsitinib (first compound 0.1265 µM) it was 0.963; with EHT 1864 + Linsitinib (first compound 0.4 µM) it was 0.906; in the assay with EHT 1864 + Linsitinib (first compound 1.265 µM), 1.12; in the assay with EHT 1864 + Linsitinib (first compound 4 µM), 0.848; with EHT 1864 + OSI-027 (first compound 0.04 µM), 0.773. Also, the relative viability amounted to 0.559 with EHT 1864 + OSI-027 (first compound 0.1265 µM); 0.851 with EHT 1864 + OSI-027 (first compound 0.4 µM); 0.61 with EHT 1864 + OSI-027 (first compound 1.265 µM); 0.655 with EHT 1864 + OSI-027 (first compound 4 µM); 0.748 with EHT 1864 + Luminespib (first compound 0.04 µM); 0.751 in the assay with EHT 1864 + Luminespib (first compound 0.1265 µM). In addition, the relative viability in the assay with EHT 1864 + Luminespib (first compound 0.4 µM) came out at 0.808; in the assay with EHT 1864 + Luminespib (first compound 1.265 µM), 0.628; with EHT 1864 + Luminespib (first compound 4 µM), 0.686; in the assay with EHT 1864 + Lapatinib (first compound 0.04 µM), 0.345; in the assay with EHT 1864 + Lapatinib (first compound 0.1265 µM), 0.374; in the assay with EHT 1864 + Lapatinib (first compound 0.4 µM), 0.338. Further, the relative viability with EHT 1864 + Lapatinib (first compound 1.265 µM) was determined as 0.38; with EHT 1864 + Lapatinib (first compound 4 µM), 0.334.

For NCI-H1734, the relative viability worked out at 0.867 in the assay with EHT 1864 + Linsitinib (first compound 0.04 µM); 0.902 with EHT 1864 + Linsitinib (first compound 0.1265 µM); 0.863 in the assay with EHT 1864 + Linsitinib (first compound 0.4 µM); 0.919 in the assay with EHT 1864 + Linsitinib (first compound 1.265 µM); 0.77 with EHT 1864 + Linsitinib (first compound 4 µM); 0.706 with EHT 1864 + OSI-027 (first compound 0.04 µM). Besides, the relative viability in the assay with EHT 1864 + OSI-027 (first compound 0.4 µM) came out at 0.611; in the assay with EHT 1864 + OSI-027 (first compound 1.265 µM) it was 0.66; with EHT 1864 + OSI-027 (first compound 4 µM), 0.592; in the assay with EHT 1864 + Luminespib (first compound 0.04 µM), 0.242; with EHT 1864 + Luminespib (first compound 0.4 µM), 0.222; with EHT 1864 + Luminespib (first compound 1.265 µM) it was 0.182. Also, the relative viability came out at 0.179 with EHT 1864 + Luminespib (first compound 4 µM); 1.08 with EHT 1864 + Lapatinib (first compound 0.04 µM); 0.86 in the assay with EHT 1864 + Lapatinib (first compound 0.1265 µM); 1.09 in the assay with EHT 1864 + Lapatinib (first compound 0.4 µM); 1.01 with EHT 1864 + Lapatinib (first compound 1.265 µM); 1.12 in the assay with EHT 1864 + Lapatinib (first compound 4 µM).

Regarding NCI-H3122, the relative viability in the assay with EHT 1864 + Linsitinib (first compound 0.04 µM) came out at 1.03; in the assay with EHT 1864 + Linsitinib (first compound 0.1265 µM), 0.977; with EHT 1864 + Linsitinib (first compound 0.4 µM) it was 0.932; with EHT 1864 + Linsitinib (first compound 1.265 µM), 1.02; with EHT 1864 + Linsitinib (first compound 4 µM), 0.965; with EHT 1864 + OSI-027 (first compound 0.04 µM) it was 0.922. The relative viability with EHT 1864 + OSI-027 (first compound 0.1265 µM) is 0.594; with EHT 1864 + OSI-027 (first compound 0.4 µM), 0.952; with EHT 1864 + OSI-027 (first compound 1.265 µM), 0.896; with EHT 1864 + OSI-027 (first compound 4 µM), 0.956; with EHT 1864 + Luminespib (first compound 0.04 µM), 0.102; with EHT 1864 + Luminespib (first compound 0.1265 µM), 0.0742. The relative viability turned out to be 0.089 with EHT 1864 + Luminespib (first compound 0.4 µM); 0.101 with EHT 1864 + Luminespib (first compound 1.265 µM); 0.102 in the assay with EHT 1864 + Luminespib (first compound 4 µM); 0.976 with EHT 1864 + Lapatinib (first compound 0.04 µM); 0.825 with EHT 1864 + Lapatinib (first compound 0.1265 µM); 1.03 with EHT 1864 + Lapatinib (first compound 0.4 µM). Besides, the relative viability came to 1.08 with EHT 1864 + Lapatinib (first compound 1.265 µM) and 1 with EHT 1864 + Lapatinib (first compound 4 µM).

CAL-12T: the relative viability turned out to be 0.824 with EHT 1864 + Linsitinib (first compound 0.04 µM); 0.667 in the assay with EHT 1864 + Linsitinib (first compound 0.1265 µM); 0.79 with EHT 1864 + Linsitinib (first compound 0.4 µM); 0.824 with EHT 1864 + Linsitinib (first compound 1.265 µM); 0.838 with EHT 1864 + Linsitinib (first compound 4 µM); 0.591 with EHT 1864 + OSI-027 (first compound 0.04 µM). The relative viability with EHT 1864 + OSI-027 (first compound 0.1265 µM) came to 0.437; in the assay with EHT 1864 + OSI-027 (first compound 0.4 µM), 0.593; in the assay with EHT 1864 + OSI-027 (first compound 1.265 µM) it was 0.552; with EHT 1864 + OSI-027 (first compound 4 µM), 0.8; with EHT 1864 + Luminespib (first compound 0.04 µM) it was 0.563; with EHT 1864 + Luminespib (first compound 0.1265 µM), 0.178. The relative viability with EHT 1864 + Luminespib (first compound 0.4 µM) stood at 0.366; with EHT 1864 + Luminespib (first compound 1.265 µM) it was 0.373; in the assay with EHT 1864 + Luminespib (first compound 4 µM), 0.46; in the assay with EHT 1864 + Lapatinib (first compound 0.04 µM), 0.63; with EHT 1864 + Lapatinib (first compound 0.1265 µM), 0.562; with EHT 1864 + Lapatinib (first compound 0.4 µM), 0.677. Besides, the relative viability was found to be 0.675 in the assay with EHT 1864 + Lapatinib (first compound 1.265 µM) and 0.799 with EHT 1864 + Lapatinib (first compound 4 µM).

Take NCI-H2085: the relative viability came to 0.87 with EHT 1864 + Linsitinib (first compound 0.04 µM); 0.816 with EHT 1864 + Linsitinib (first compound 0.1265 µM); 0.883 with EHT 1864 + Linsitinib (first compound 0.4 µM); 0.91 with EHT 1864 + Linsitinib (first compound 1.265 µM); 0.787 in the assay with EHT 1864 + Linsitinib (first compound 4 µM); 0.719 with EHT 1864 + OSI-027 (first compound 0.04 µM). In addition, the relative viability stood at 0.772 in the assay with EHT 1864 + OSI-027 (first compound 0.4 µM); 0.719 with EHT 1864 + OSI-027 (first compound 1.265 µM); 0.812 with EHT 1864 + OSI-027 (first compound 4 µM); 0.432 with EHT 1864 + Luminespib (first compound 0.04 µM); 0.541 with EHT 1864 + Luminespib (first compound 0.4 µM); 0.415 with EHT 1864 + Luminespib (first compound 1.265 µM). The relative viability in the assay with EHT 1864 + Luminespib (first compound 4 µM) is 0.442; with EHT 1864 + Lapatinib (first compound 0.04 µM) it was 0.809; with EHT 1864 + Lapatinib (first compound 0.1265 µM) it was 0.678; in the assay with EHT 1864 + Lapatinib (first compound 0.4 µM), 0.807; with EHT 1864 + Lapatinib (first compound 1.265 µM) it was 0.716; with EHT 1864 + Lapatinib (first compound 4 µM), 0.744.

Source of the values: the supplement of paper PMC10307832.
